Results published in patent US20060030603A1, “Novel aryl urea analogs and use thereof as antibacterial agents” (priority 2004, published 2006).
Values after ≈ are worked out from the molar mass of the structure shown. Where two headings read alike, the source gives them in different places.

What was measured:
S. aureus ATCC 13709 = assay: MIC assay, S. aureus; type: cell-based; details: Staphylococcus aureus, ATCC13709
Procedure: (§1) In vitro structure/activity relationship (“SAR”) tests were performed according to the following procedure: MIC assays were carried out in a 150 μL volume in duplicate in 96-well clear flat-bottom plates. The bacterial suspension from an overnight culture growth in the appropriate medium was added to a solution of test compound in 0.5% DMSO in water. Final bacterial inoculum was approximate 10^3-10^4 CFU/well. The percentage growth of the bacteria in the test wells relative to that observed for a control well containing no compound was determined by measuring absorbance at 595 nm (A595) after 20-24 h at 37° C. […] The bacterial strains used for the assays include S. aureus ATCC 13709, S. pyogenes ATCC 49399, E. faecalis ATCC 29212, E. faecium ATCC 6569, E. coli ATCC 25922, K. pneumoniae ATCC 13383, P. vulgaris ATCC 8427, P. aeruginosa ATCC 25416. The results of the in vitro SAR tests are in Tables 1-3.

S. pyogenes ATCC 49399 = assay: MIC assay, S. pyogenes; type: cell-based; details: Streptococcus pyogenes, ATCC49399; read-out: MIC S. pyogenes ATCC 49399
Procedure: as §1

E. faecalis ATCC 29212 = assay: MIC assay, E. faecalis; type: cell-based; details: Enterococcus faecalis, ATCC29212; read-out: MIC E. faecalis ATCC 29212
Procedure: as §1

E. faecium ATCC 6569 = assay: MIC assay, E. faecium; type: cell-based; details: Enterococcus faecium, ATCC6569; read-out: MIC E. faecium ATCC 6569
Procedure: as §1

E. coli ATCC 25922 = assay: MIC assay, E. coli; type: cell-based; details: Escherichia coli, ATCC25922; read-out: MIC E. coli ATCC 25922
Procedure: as §1

K. pneumoniae ATCC 13383 = assay: MIC assay, K. pneumoniae; type: cell-based; details: Klebsiella pneumoniae, ATCC13383; read-out: MIC K. pneumoniae ATCC 13383
Procedure: as §1

P. vulgaris ATCC 8427 = assay: MIC assay, P. vulgaris; type: cell-based; details: Proteus vulgaris, ATCC8427; read-out: MIC P. vulgaris ATCC 8427
Procedure: as §1

P. aeruginosa ATCC 25416 = assay: MIC assay, P. aeruginosa; type: cell-based; details: Pseudomonas aeruginosa, ATCC25416; read-out: MIC P. aeruginosa ATCC 25416
Procedure: as §1

[1] = MIT HUH-7 CC50 48h cytotoxicity; type: cell-based; details: human, HUH-7 cells; HUH-7, 48h
log P = type: physicochemical
S. aureus (ATCC 13709) = assay: Mouse Protection Assay (lethal murine model of bacterial infection); type: in vivo, ICR-CD-1 female mice; details: 14b HCl salt
Procedure: The in vivo tests were preformed according to the following procedure:
Mouse Protection Assay: 10 mice/dose group (ICR-CD-1 female mice 18-20 grams, Charles River) were infected with a lethal dose (10^6 CFU/mouse) of S. aureus (ATCC 13709) suspended in 7.5% hog Gastric Mucin IP. The infected animals were treated at 1 h and 3 h post infection with either compound 12e (lactate salt) from 37 mg/kg down to 2.3 mg/kg or compound 14b (HCl salt) from 75 mg/kg down to 2.3 mg/kg (0.1 mL/mouse). The positive control drug was Vancomycin (Eli Lilly) 1 mg/kg.

[2] = Acute Toxicity Study (maximum tolerated dose); type: in vivo; details: observed seven days; for toxic dose via the IP route: intraperitoneal, 150 down to 19 mg/kg tested; for survival in the subQ group: subcutaneous, 150 down to 19 mg/kg, compound appeared to precipitate at injection site
Procedure: Acute Toxicity Study: The maximum tolerated dose for either compound 12e or 14b was determined by administering the compound from 150 mg/kg down to 19 mg/kg given either intraperitoneally (IP) or subcutaneously (subQ). […] On autopsy some of the compound appeared to precipitate at the injection site thereby reducing the effective dose. Via the IP route compound 12e was toxic down to 37 mg/kg and compound 14b was only toxic at 150 mg/kg.

[3] = Table 2, benzylamino group modified analogs, read-out: MIC S. aureus
[4] = Table 4, read-out: MIC S. aureus ATCC 13709
[5] = 2.3 × 2 mg/Kg, 1 h and 3 h post infection, one week, 12e lactate salt
[6] = 4.7 × 2 mg/Kg, 1 h and 3 h post infection, one week, 12e lactate salt
[7] = 9.4 × 2 mg/Kg, 1 h and 3 h post infection, one week, 12e lactate salt
[8] = 18.8 × 2 mg/Kg, 1 h and 3 h post infection, one week, 12e lactate salt
[9] = 37.5 × 2 mg/Kg, 1 h and 3 h post infection, one week, 12e lactate salt

Structure (SMILES)	MIC (S. aureus ATCC 13709; [3]) [µM]	MIC (S. aureus ATCC 13709; [4]) [µM]	MIC (S. pyogenes ATCC 49399) [µM]	MIC (E. faecalis ATCC 29212) [µM]	MIC (E. faecium ATCC 6569) [µM]	MIC (E. coli ATCC 25922) [µM]	MIC (K. pneumoniae ATCC 13383) [µM]	MIC (P. vulgaris ATCC 8427) [µM]	MIC (P. aeruginosa ATCC 25416) [µM]	CC50 at 48 h [1] [µM]	logP (log P)	Mice Alive/Total (S. aureus (ATCC 13709); [5])	Mice Alive/Total (S. aureus (ATCC 13709); [6])	Mice Alive/Total (S. aureus (ATCC 13709); [7])	Mice Alive/Total (S. aureus (ATCC 13709); [8])	Mice Alive/Total (S. aureus (ATCC 13709); [9])	Mice Alive/Total (S. aureus (ATCC 13709); 75 × 2 mg/Kg, treated 1 h and 3 h post infection, observed one week)	toxic dose via the IP route [2] [mg/kg]	survival in the subQ group [2]
CN(CCCNC(=O)Nc1ccc(C(F)(F)F)cc1)CCCOc1ccc(Br)cc1Br [14b, 1-(3-{[3-(2,4-Dibromo-phenoxy)-propyl]-methyl-amino}-propyl)-3-(4-trifluoromethyl-phenyl)-urea]	3 to 6 (≈ 1.7 to 3.4 µg/mL)	3 to 6 (≈ 1.7 to 3.4 µg/mL)	3 to 6 (≈ 1.7 to 3.4 µg/mL)	3 to 6 (≈ 1.7 to 3.4 µg/mL)	> 100	12 to 25 (≈ 6.81 to 14.2 µg/mL)	3 to 6 (≈ 1.7 to 3.4 µg/mL)	12 to 25 (≈ 6.81 to 14.2 µg/mL)	> 100	> 100	5.3	3/10	4/10	6/10	6/10	7/10	4/10	150	all animals survived at all doses tested
O=C(NCCCNCc1ccc(-c2ccccc2)cc1)Nc1ccc(C(F)(F)F)cc1 [12e, 1-{3-[(Biphenyl-4-ylmethyl)-amino]-propyl}-3-(4-trifluoromethyl-phenyl)-urea]	3 to 6 (≈ 1.28 to 2.56 µg/mL)	3 to 6 (≈ 1.28 to 2.56 µg/mL)	3 to 6 (≈ 1.28 to 2.56 µg/mL)	> 100	> 100	6 to 12 (≈ 2.56 to 5.13 µg/mL)	6 to 12 (≈ 2.56 to 5.13 µg/mL)	12 to 25 (≈ 5.13 to 10.7 µg/mL)	> 100	25 to 50	4.91	0/10	2/10	4/10	3/10	3/10	–	≥ 37	all animals survived at all doses tested
O=C(NCCCNCc1ccc(Oc2ccccc2)cc1)Nc1ccc(C(F)(F)F)cc1 [12h, 1-[3-(4-Phenoxy-benzylamino)-propyl]-3-(4-trifluoromethyl-phenyl)-urea]	3 to 6 (≈ 1.33 to 2.66 µg/mL)	3 to 6 (≈ 1.33 to 2.66 µg/mL)	3 to 6 (≈ 1.33 to 2.66 µg/mL)	3 to 6 (≈ 1.33 to 2.66 µg/mL)	> 100	6 to 12 (≈ 2.66 to 5.32 µg/mL)	6 to 12 (≈ 2.66 to 5.32 µg/mL)	12 to 25 (≈ 5.32 to 11.1 µg/mL)	> 100	12.5 to 25	4.77	–	–	–	–	–	–	–	–
CCOc1c(Br)cc(Br)cc1CNCCCNC(=O)Nc1ccc(C(F)(F)F)cc1 [12s, 1-[3-(3,5-Dibromo-2-ethoxy-benzylamino)-propyl]-3-(4-trifluoromethyl-phenyl)-urea]	3 to 6 (≈ 1.66 to 3.32 µg/mL)	3 to 6 (≈ 1.66 to 3.32 µg/mL)	3 to 6 (≈ 1.66 to 3.32 µg/mL)	6 to 12 (≈ 3.32 to 6.64 µg/mL)	6 to 12 (≈ 3.32 to 6.64 µg/mL)	12 to 25 (≈ 6.64 to 13.8 µg/mL)	3 to 6 (≈ 1.66 to 3.32 µg/mL)	12 to 25 (≈ 6.64 to 13.8 µg/mL)	> 100	50 to 100	5.1	–	–	–	–	–	–	–	–
